Results on two compounds are retold here after patent US20260027221A1, “Targeted Pyrrolobenzodiazapine Conjugates” (BeOne Medicines I GmbH, priority 2023, published 2026).

Where “and” joins values, the source holds several entries; their conditions need not be identical. Equal values may be shown once.

One test deals with A375 cells. Description: Compounds cellular killing in A375 cancer line (Cell Titer-Glo, 6 days). Format: cell-based, human. The conditions noted are these: 6 days incubation, cell viability by Cell Titer-Glo. As to the method: A375 (ATCC, CRL-1619). […] The base medium for A375 is DMEM, high glucose, GlutaMAX™ Supplement (Gibco, 10566024). To make the complete growth medium, fetal bovine serum was added to the base mediumat a final concentration of 10% (Gibco, 10099-141C). The cell line was grown in a humidified 5% CO2 atmosphere at 37° C., and was regularly tested for the presence of mycoplasma with MycoAlert™ PLUS Mycoplasma Detection Kit (Lonza, LT07-710).
(§1) Payload direct killing by compounds 1-1 to 1-22 was assessed in A375 and Calu-6 cancer cell lines. Cells were seeded at 1E3/well (A375) 2E3/well (Calu-6) into 96-well plates (Greiner: 655090), 100 μL/well, and incubated at 37° C., 5% CO2, overnight. Fresh growth medium was added containing varying concentrations of compounds, 50 μL/well, and incubated at 37° C., 5% CO2, for 6 days. The cell viability detected by Cell Titer-Glo (Promega, G7573), 70 μL/well. The plates were allowed to incubate at room temperature for 10 minutes to stabilize the luminescent signal. The plates were analyzed with a microplate reader.

In the next test the test system is Calu-6 cells. Description: Compounds cellular killing in Calu-6 cancer line (Cell Titer-Glo, 6 days). Format: cell-based, human. The conditions noted are these: 6 days incubation, cell viability by Cell Titer-Glo. As to the method:
Calu-6 (ATCC, HTB-56). […] The base medium for Calu-6 is Eagle's Minimum Essential Medium (ATCC, 30-2003). To make the complete growth medium, fetal bovine serum was added to the base mediumat a final concentration of 10% (Gibco, 10099-141C). The cell line was grown in a humidified 5% CO2 atmosphere at 37° C., and was regularly tested for the presence of mycoplasma with MycoAlert™ PLUS Mycoplasma Detection Kit (Lonza, LT07-710).
as §1

Turning to `COc1cc2c(cc1OCCCCCOc1cc3c(cc1OC)C(=O)N1C=C(C)C[C@H]1C=N3)N=C[C@@H]1CC(C)=CN1C2=O` [Ref-1-1, reference compound], in the test with A375 cells, the “A375 Emax (%)” value was 99.9% and 99.6%. Further, the Emax in the test with A375 cells (Homo sapiens, A-375, 144 h) amounted to 99.8%; with Calu-6 cells (Homo sapiens, Calu-6, 144 h) it was 99.5%. Also, in the test with Calu-6 cells, the “Calu-6 Emax (%)” value is 99.8% and 99.3% and 93.1%.
Turning to `COc1cc2c(cc1OC/C=C/CCOc1cc3c(cc1OC)C(=O)N1CC4(CC4)C[C@H]1C=N3)N=C[C@@H]1CC3(CC3)CN1C2=O` [Compound 1-19, (11aS,11a″S)-8,8″-(((E)-pent-2-ene-1,5-diyl)bis(oxy))bis(7-methoxy-1,11a-dihydro-3H,5H-spiro[benzo[e]pyrrolo[1,2-a][1,4]diazepine-2,1′-cyclopropan]-5-one)], in the test with A375 cells (Homo sapiens, A-375, 144 h), it took 0.165 nM to reach a half-maximal effect (EC50) and the Emax amounted to 88.7%. In the test with Calu-6 cells (Homo sapiens, Calu-6, 144 h), this compound returned an EC50 of 0.052 nM and an Emax of 90.6%.
